Data: US8987445B2, “Sulfonamide compounds having TRPM8 antagonistic activity” (Mitsubishi Tanabe Pharma Corporation, priority 2011, dated 2015)

biological target: human TRPM8 (Homo sapiens (Human), UniProt Q7Z2W7); test: TRPM8 inhibition assay (menthol-induced calcium influx, FDSS); format: cell-based; settings: HEK293 cells stably expressing human TRPM8; 100 μM menthol; Fura-2AM Ca2+ signal; read-out: TRPM8 Blocking Test (IC50)
Protocol: The functional activity of compounds was determined by measuring changes in intracellular calcium concentration using a Ca^2+ sensitive fluorescent dye. The changes in fluorescent signal were monitored by the cell imaging technology by Hamamatsu Photonics's Functional Drug Screening System (FDSS). […] HEK293 cells stably expressing human TRPM8 were grown in flasks. On assay day, the culture medium was removed, and cells were washed with phosphate-buffered saline (PBS) and harvested with PBS containing 2 mM ethylenediaminetetraacetic acid, disodium salt (EDTA, 2Na). […] Subsequently, suspended 20,000 to 50,000 cells per well were incubated with test compound (at varying concentrations) in each well for 20 min at 37° C. Changes in intracellular Ca^2+ evoked by 100 μM menthol were measured for 2 min using FDSS. IC50 vales were determined from four-point concentration-response studies. Curves were generated using the average of quadruplicate wells for each data point.

human TRPM8, sequence (Q7Z2W7 whole entry): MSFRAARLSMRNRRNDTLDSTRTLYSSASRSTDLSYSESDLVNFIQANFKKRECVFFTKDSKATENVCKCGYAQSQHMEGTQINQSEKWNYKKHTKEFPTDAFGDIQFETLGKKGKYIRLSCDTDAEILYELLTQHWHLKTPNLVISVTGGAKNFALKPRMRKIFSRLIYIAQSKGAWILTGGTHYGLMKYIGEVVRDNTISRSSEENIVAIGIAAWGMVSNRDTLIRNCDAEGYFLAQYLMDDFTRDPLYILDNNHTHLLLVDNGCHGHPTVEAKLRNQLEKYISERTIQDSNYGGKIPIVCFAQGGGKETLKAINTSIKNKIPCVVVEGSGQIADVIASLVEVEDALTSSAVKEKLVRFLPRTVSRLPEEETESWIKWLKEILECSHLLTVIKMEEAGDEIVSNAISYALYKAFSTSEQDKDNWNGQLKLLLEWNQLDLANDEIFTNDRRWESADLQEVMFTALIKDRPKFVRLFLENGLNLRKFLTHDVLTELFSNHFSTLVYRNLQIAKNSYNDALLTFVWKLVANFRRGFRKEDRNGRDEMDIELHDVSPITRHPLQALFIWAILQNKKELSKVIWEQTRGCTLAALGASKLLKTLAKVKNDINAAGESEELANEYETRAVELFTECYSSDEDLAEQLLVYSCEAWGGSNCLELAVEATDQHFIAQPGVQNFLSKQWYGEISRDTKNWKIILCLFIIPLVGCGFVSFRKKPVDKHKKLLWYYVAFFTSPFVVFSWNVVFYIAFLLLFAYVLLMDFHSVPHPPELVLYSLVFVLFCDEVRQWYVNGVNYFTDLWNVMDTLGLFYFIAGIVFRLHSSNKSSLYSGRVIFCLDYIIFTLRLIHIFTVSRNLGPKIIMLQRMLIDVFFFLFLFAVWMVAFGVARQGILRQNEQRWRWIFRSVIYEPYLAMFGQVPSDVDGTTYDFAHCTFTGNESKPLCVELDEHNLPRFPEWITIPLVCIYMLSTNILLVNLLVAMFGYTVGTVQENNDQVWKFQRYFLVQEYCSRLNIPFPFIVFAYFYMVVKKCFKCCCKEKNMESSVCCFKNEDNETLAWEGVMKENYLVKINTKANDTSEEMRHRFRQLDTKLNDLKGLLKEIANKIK

IC50	Structure (SMILES)
22 nM	Cn1ccc2c(Cl)cnc(N(Cc3ccc(OC(F)(F)F)cc3)S(=O)(=O)c3ccc(C(=O)O)cc3)c21 [Example 6, sodium 4-({(4-chloro-1-methyl-1H-pyrrolo[2,3-c]pyridin-7-yl)[4-(trifluoromethoxy)benzyl]amino}sulfonyl)benzoate]
26 nM	Cc1c(N(Cc2ccc(-c3ccc(F)cc3)cc2)S(=O)(=O)c2ccc(C(=O)O)cc2)ncc2ccccc12 [Example 8, 4-{[[(4′-fluorobiphenyl-4-yl)methyl](4-methylisoquinolin-3-yl)amino]sulfonyl}benzoic acid]
4.7 nM	CCOC(C)(c1ccc(CN(c2ncc3ccccc3c2C)S(=O)(=O)c2ccc(C(=O)O)cc2)cc1)C(F)(F)F (stereo not shown) [Example 14, 4-{[[4-(1-ethoxy-2,2,2-trifluoro-1-methylethyl)benzyl](4-methylisoquinolin-3-yl)amino]sulfonyl}benzoic acid]
5 nM	Cc1cc2ccccc2nc1N(Cc1ccc(OC(F)(F)F)cc1)S(=O)(=O)c1ccc(C(=O)O)cc1 [Example 17]
12 nM	Cc1cc2ccccc2nc1N(Cc1ccc(F)c(C(F)(F)F)c1)S(=O)(=O)c1ccc(C(=O)O)cc1 [Example 20]
1.8 nM	Cc1c(N(Cc2ccc(C(C)(C)C)cc2)S(=O)(=O)c2ccc(C(=O)O)cc2)ncc2ccccc12 [Example 23]
4.6 nM	Cc1c(N(Cc2ccc(CC3CC3)cc2)S(=O)(=O)c2ccc(C(=O)O)cc2)ncc2ccccc12 [Example 24]
26 nM	Cc1c(N(Cc2ccc(-c3ccccc3)cc2)S(=O)(=O)c2ccc(C(=O)O)cc2)ncc2ccccc12 [Example 27]
16 nM	Cc1c(N(Cc2ccc(Oc3ccccc3)cc2)S(=O)(=O)c2ccc(C(=O)O)cc2)ncc2ccccc12 [Example 28]
65 nM	Cc1c(N(Cc2cccc3ccccc23)S(=O)(=O)c2ccc(C(=O)O)cc2)ncc2ccccc12 [Example 31]
8.6 nM	Cc1c(N(Cc2ccc3ccccc3c2)S(=O)(=O)c2ccc(C(=O)O)cc2)ncc2ccccc12 [Example 32]
12 nM	Cc1c(N(Cc2ccc(C3CC3)cc2)S(=O)(=O)c2ccc(C(=O)O)cc2)ncc2ccccc12 [Example 41]
35 nM	Cc1c(N(Cc2ccc(OC3CC3)cc2)S(=O)(=O)c2ccc(C(=O)O)cc2)ncc2ccccc12 [Example 45]
17 nM	Cc1c(N(Cc2ccc(OC3CCCC3)cc2)S(=O)(=O)c2ccc(C(=O)O)cc2)ncc2ccccc12 [Example 46]
4.7 nM	Cc1c(N(Cc2ccc3c(c2)CCCC3)S(=O)(=O)c2ccc(C(=O)O)cc2)ncc2ccccc12 [Example 56]
8.1 nM	Cc1c(N(Cc2ccc3c(c2)CCC3)S(=O)(=O)c2ccc(C(=O)O)cc2)ncc2ccccc12 [Example 60]
1.3 nM	Cc1c(N(Cc2ccc3c(c2)CCC3(C)C)S(=O)(=O)c2ccc(C(=O)O)cc2)ncc2ccccc12 [Example 61]
8.3 nM	Cc1c(N(Cc2ccc3c(c2)CC(C)(C)C3)S(=O)(=O)c2ccc(C(=O)O)cc2)ncc2ccccc12 [Example 62]
38 nM	Cc1c(N(Cc2ccc(C(F)(F)F)cn2)S(=O)(=O)c2ccc(C(=O)O)cc2)ncc2ccccc12 [Example 66]
67 nM	Cc1c(N(Cc2ccc(-c3ccccc3)cn2)S(=O)(=O)c2ccc(C(=O)O)cc2)ncc2ccccc12 [Example 67]
95 nM	Cc1c(N(Cc2ccc(-c3ccccc3)nc2)S(=O)(=O)c2ccc(C(=O)O)cc2)ncc2ccccc12 [Example 70]
18 nM	Cc1c(N(Cc2ccc3c(c2)CC(C)(C)O3)S(=O)(=O)c2ccc(C(=O)O)cc2)ncc2ccccc12 [Example 80]
58 nM	Cc1c(N(Cc2ccc3c(c2)OC(C)(C)C3)S(=O)(=O)c2ccc(C(=O)O)cc2)ncc2ccccc12 [Example 81]

IC50	Structure (SMILES)
10 nM	Cc1c(N(Cc2ccc3c(c2)COC3(C)C)S(=O)(=O)c2ccc(C(=O)O)cc2)ncc2ccccc12 [Example 83]
79 nM	Cc1c(N(CC2CCN(c3ccccc3)CC2)S(=O)(=O)c2ccc(C(=O)O)cc2)ncc2ccccc12 [Example 85]
10 nM	Cc1c(N(Cc2ccc(-c3ccccc3F)cc2)S(=O)(=O)c2ccc(C(=O)O)cc2)ncc2ccccc12 [Example 88]
15 nM	Cc1c(N(Cc2ccc(-c3cccc(F)c3)cc2)S(=O)(=O)c2ccc(C(=O)O)cc2)ncc2ccccc12 [Example 89]
4.7 nM	COC(C)(c1ccc(CN(c2ncc3ccccc3c2C)S(=O)(=O)c2ccc(C(=O)O)cc2)cc1)C(F)(F)F (stereo not shown) [Example 96]
11 nM	CCCc1nc(N(Cc2ccc(OC(F)(F)F)cc2)S(=O)(=O)c2ccc(C(=O)O)cc2)c(C)c2ccccc12 [Example 97, 4-({(4-methyl-1-propylisoquinolin-3-yl)[4-(trifluoromethoxy)benzyl]amino}sulfonyl)benzoic acid]
29 nM	Cc1c(N(Cc2ccc(OC(F)(F)F)cc2)S(=O)(=O)c2ccc(C(=O)O)cc2)nc(N2CCCC2)c2ccccc12 [Example 99, 4-({(4-methyl-1-pyrrolidin-1-ylisoquinolin-3-yl)[4-(trifluoromethoxy)benzyl]amino}sulfonyl)benzoic acid]
21 nM	Cc1c(N(Cc2ccc(OC(F)(F)F)cc2)S(=O)(=O)c2ccc(C(=O)O)cc2)nc(OC(C)C)c2ccccc12 [Example 100, 4-({(1-isopropoxy-4-methylisoquinolin-3-yl)[4-(trifluoromethoxy)benzyl]amino}sulfonyl)benzoic acid]
115 nM	O=C(O)c1ccc(S(=O)(=O)N(Cc2ccc(OC(F)(F)F)cc2)c2cc3c(Cl)cccc3cn2)cc1 [Example 102, 4-({(5-chloroisoquinolin-3-yl)[4-(trifluoromethoxy)benzyl]amino}sulfonyl)benzoic acid]
0.9 nM	O=C(O)c1ccc(S(=O)(=O)N(Cc2ccc(OC(F)(F)F)cc2)c2ncc3ccccc3c2C2CC2)cc1 [Example 104, 4-({(4-cyclopropylisoquinolin-3-yl)[4-(trifluoromethoxy)benzyl]amino}sulfonyl)benzoic acid]
21 nM	Cc1c(N(Cc2ccc(OC(F)(F)F)cc2)S(=O)(=O)c2ccc(C(=O)O)cc2)nc(C(F)(F)F)c2ccccc12 [Example 108, 4-({[4-methyl-1-(trifluoromethyl)isoquinolin-3-yl][4-(trifluoromethoxy)benzyl]amino}sulfonyl)benzoic acid]
7.4 nM	CC(C)c1nc(N(Cc2ccc(OC(F)(F)F)cc2)S(=O)(=O)c2ccc(C(=O)O)cc2)c(C(F)(F)F)c2ccccc12 [Example 110, 4-({[1-isopropyl-4-(trifluoromethyl)isoquinolin-3-yl][4-(trifluoromethoxy)benzyl]amino}sulfonyl)benzoic acid]
14 nM	CC(=O)c1c(N(Cc2ccc(OC(F)(F)F)cc2)S(=O)(=O)c2ccc(C(=O)O)cc2)ncc2ccccc12 [Example 112, 4-({(4-acetylisoquinolin-3-yl)[4-(trifluoromethoxy)benzyl]amino}sulfonyl)benzoic acid]
25 nM	CC(O)c1c(N(Cc2ccc(OC(F)(F)F)cc2)S(=O)(=O)c2ccc(C(=O)O)cc2)ncc2ccccc12 (stereo not shown) [Example 113, 4-({[4-(1-hydroxyethyl)isoquinolin-3-yl][4-(trifluoromethoxy)benzyl]amino}sulfonyl)benzoic acid]
97 nM	Cc1c(N(Cc2ccc(OC(F)(F)F)cc2)S(=O)(=O)c2ccc(C(=O)O)cc2)nc(C(C)O)c2ccccc12 (stereo not shown) [Example 115, 4-({[1-(1-hydroxyethyl)-4-methylisoquinolin-3-yl][4-(trifluoromethoxy)benzyl]amino}sulfonyl)benzoic acid]
54 nM	Cc1c(N(Cc2ccc3cc[nH]c3c2)S(=O)(=O)c2ccc(C(=O)O)cc2)ncc2ccccc12 [Example 117, 4-{[(1H-indol-6-ylmethyl)(4-methylisoquinolin-3-yl)amino]sulfonyl}benzoic acid]
92 nM	Cc1c(N(Cc2ccc3ccn(C)c3c2)S(=O)(=O)c2ccc(C(=O)O)cc2)ncc2ccccc12 [Example 119, 4-{[[(1-methyl-1H-indol-6-yl)methyl](4-methylisoquinolin-3-yl)amino]sulfonyl}benzoic acid]
15 nM	Cc1c(N(Cc2ccc3c(Cl)c[nH]c3c2)S(=O)(=O)c2ccc(C(=O)O)cc2)ncc2ccccc12 [Example 121, 4-{[[(3-chloro-1H-indol-6-yl)methyl](4-methylisoquinolin-3-yl)amino]sulfonyl}benzoic acid]
57 nM	Cc1c(N(Cc2ccc3c(Cl)cn(C)c3c2)S(=O)(=O)c2ccc(C(=O)O)cc2)ncc2ccccc12 [Example 122, 4-{[[(3-chloro-1-methyl-1H-indol-6-yl)methyl](4-methylisoquinolin-3-yl)amino]sulfonyl}benzoic acid]
21 nM	Cc1c(N(Cc2ccc(OC(F)(F)F)cc2)S(=O)(=O)c2ccc(C(N)=O)cc2)ncc2ccccc12 [Example 123, 4-({(4-methylisoquinolin-3-yl)[4-(trifluoromethoxy)benzyl]amino}sulfonyl)benzamide]
13 nM	CONC(=O)c1ccc(S(=O)(=O)N(Cc2ccc(OC(F)(F)F)cc2)c2ncc3ccccc3c2C)cc1 [Example 124, N-methoxy-4-({(4-methylisoquinolin-3-yl)[4-(trifluoromethoxy)benzyl]amino}sulfonyl)benzamide]
62 nM	Cc1c(N(Cc2ccc(OC(F)(F)F)cc2)S(=O)(=O)c2ccc(C(C)(C)O)cc2)ncc2ccccc12 [Example 125, 4-(1-hydroxy-1-methylethyl)-N-(4-methylisoquinolin-3-yl)-N-[4-(trifluoromethoxy)benzyl]benzenesulfonamide]
195 nM	Cc1c(N(Cc2nc3ccccc3o2)S(=O)(=O)c2ccc(C(=O)O)cc2)ncc2ccccc12 [Example 127]
